Experimental data published in PMC13266999, “Designing Antibiotics with Inherent Resistance to Efflux as a Strategy to Revive Discovery against Multidrug-Resistant Pathogens” (Journal of Medicinal Chemistry, 2026).
Converted amounts (≈) assume the structure as drawn. “And” between values parts separate entries of the source, which are not always exact repeats. Identical values can stand only once. Like-named read-outs stand apart in the source and are kept apart here.

What was measured:
A. baumannii = A. baumannii efflux chequerboard assay; assay type: cell-based, Acinetobacter baumannii; settings: for MIC: Acinetobacter baumannii
Protocol: Checkerboard assays were performed by preparing two separate 2-fold dilution series of compounds in two 96 well plates, one horizontally, one vertically. […] Plates were incubated at 37 C for 20 h and the absorbance (OD600) was read on a CLARIOstar spectrophotometer (BMG Labtech). The fractional inhibitory concentration was calculated as follows: ΣFIC = [(MIC of A in combination)/(MIC of A alone)] + [(MIC of B in combination)/(MIC of B alone)].

S. aureus = assay: MIC (microbroth dilution); assay type: cell-based, Staphylococcus aureus; settings: for fold difference in MIC, SA-1199B vs SA-1199: NorA-overexpressing vs WT; for MIC: Staphylococcus aureus; for fold potentiation compared to levofloxacin: fluoroquinolone-resistant NCTC 13616 and NCTC 13277
Protocol: (§1) All bacteria were maintained on tryptic soy agar (TSA), except Streptococcus spp., which were maintained on Columbia agar plates containing 5% horse blood. […] Bacteria were grown to stationary phase in liquid culture overnight, with shaking at 200 rpm, before being back diluted to the relevant starting concentration for each assay below. MICs were measured by the microbroth dilution method. […] Absorbance at OD600 was read on a CLARIOstar spectrophotometer (BMG Labtech) and the MIC was defined as the minimum concentration of compound where no visible growth was detected. […] MICs were also performed in the presence of the outer membrane permeator, polymyxin b nonapeptide (PMBN) following the same MIC method but with the following variation. The 2-fold dilution series of compound was prepared as above, then 50 μL of PMBN at a final concentration of 30 μg/mL was added to relevant wells, while 50 μL/well of blank media was added to the remaining wells. Bacteria were then added at 50 μL/well for a starting concentration as above. […] The MICs were read and defined as above. All animal procedures were performed by the contract research organization Pharmacology Discovery Services Taiwan in accordance with the Guide for the Care and Use of Laboratory Animals. The procedures were approved by the Institutional Ethics Committee of Pharmacology Discovery Services Taiwan, Ltd. (approval no. AB127662), in compliance with animal welfare legislation in Taiwan.

[1] = tested on: NorA overexpressing strain NCTC 13616; assay: Reserpine growth (efflux inhibition) assay; settings: for AUC of growth curve: biological replicates 1-3
Protocol: Statistical analyses were performed with GraphPad Prism V9.5.0. […] Unpaired t tests were used when comparing two samples in the gyrase assays.

E. faecalis = assay: MIC (microbroth dilution); assay type: cell-based, Enterococcus faecalis; settings: Enterococcus faecalis, read-out: MIC
Protocol: as §1

[2] = ATCC9144, ATCC 9144, read-out: MIC
[3] = NCTC13277, NCTC 13277, read-out: MIC
[4] = NCTC13616, NCTC 13616, read-out: MIC
[5] = ATCC17978, A. baumannii ATCC 17978, read-out: MIC alone
[6] = A. baumannii AYE, read-out: MIC alone

Colistin
MIC +50 (0.25x MIC) (A. baumannii; A. baumannii ATCC 17978): 0.015 to 0.123 µg/mL
MIC +50 (0.5x MIC) (A. baumannii; A. baumannii ATCC 17978): 0.0017 to 0.015 µg/mL
MIC alone (A. baumannii; A. baumannii ATCC 17978): 0.25 µg/mL
MIC +50 (0.25x MIC) (A. baumannii; A. baumannii AYE): 0.015 µg/mL
MIC +50 (0.5x MIC) (A. baumannii; A. baumannii AYE): 0.003 to 0.007 µg/mL
MIC alone (A. baumannii; A. baumannii AYE): 0.25 to 0.5 µg/mL

C[C@H]1COc2c(N3CCC(Nc4ncccn4)C3)c(F)cc3c(=O)c(C(=O)O)cn1c23 (stereo partly drawn) [Compound 43, (3S)-9-Fluoro-3-methyl-7-oxo-10-(3-(pyrimidin-2-ylamino)pyrrolidin-1-yl)-2,3-dihydro-7H-[1,4]oxazino[2,3,4-ij]quinoline-6-carboxylic acid]
fold difference in MIC, SA-1199B vs SA-1199 (S. aureus): 2 fold
MIC (S. aureus; [2]): 0.125 µg/mL (≈ 0.294 µM)
MIC (S. aureus; [3]): 2 µg/mL (≈ 4.7 µM)
MIC (S. aureus; [4]): 2 µg/mL (≈ 4.7 µM)
MIC (S. aureus; SA-1199, read-out: MIC): 0.016 µg/mL (≈ 0.0376 µM)
MIC (S. aureus; SA-1199B (NorA-overexpressing)): 0.03 µg/mL (≈ 0.0705 µM)
fold potentiation compared to levofloxacin (S. aureus): 8 fold
AUC of growth curve ([1]; 0.25 MIC + R (reserpine)): 2.601 and 2.681 and 2.535
AUC of growth curve ([1]; 0.25 MIC): 3.079 and 3.208 and 2.944
AUC of growth curve ([1]; 0.5 MIC + R (reserpine)): 0.9550 and 0.7355 and 0.8940
AUC of growth curve ([1]; 0.5 MIC): 1.061 and 0.9440 and 1.050
efflux liability in reserpine assay ([1]; 0.5x MIC with vs without reserpine): did not demonstrate efflux liability

CC(C)(O/N=C(\C(=O)N[C@@H]1C(=O)N2C(C(=O)[O-])=C(C[n+]3ccccc3)CS[C@H]12)c1csc(N)n1)C(=O)O [Ceftazidime]
MIC +50 (0.25x MIC) (A. baumannii; A. baumannii ATCC 17978): 0.94 to 3.76 µg/mL
MIC +50 (0.5x MIC) (A. baumannii; A. baumannii ATCC 17978): 0.003 to 0.438 µg/mL
MIC +50 (0.25x MIC) (A. baumannii; A. baumannii AYE): >1,024 μg/mL
MIC +50 (0.5x MIC) (A. baumannii; A. baumannii AYE): 3.76 to 224 µg/mL
MIC (A. baumannii; [5]): 4 to 16 µg/mL
MIC (A. baumannii; [6]): > 1020 µg/mL

O=C(O)c1cn(C2CC2)c2cc(N3CCN[C@@H](Cc4cccc5ccccc45)C3)c(F)cc2c1=O [Compound 12, (S)-1-Cyclopropyl-6-fluoro-7-(3-(naphthalen-1-ylmethyl)piperazin-1-yl)-4-oxo-1,4-dihydroquinoline-3-carboxylic acid]
MIC (S. aureus; [2]): 4 µg/mL (≈ 8.48 µM)
MIC (S. aureus; [3]): 8 µg/mL (≈ 17 µM)
MIC (S. aureus; [4]): 8 µg/mL (≈ 17 µM)
MIC (S. aureus; SA-1199, read-out: MIC): 2 µg/mL (≈ 4.24 µM)
MIC (S. aureus; SA-1199B (NorA-overexpressing)): 4 µg/mL (≈ 8.48 µM)
MIC (S. aureus; USA300, USA300, read-out: MIC): 8 to 16 µg/mL (≈ 17 to 33.9 µM)
MIC (E. faecalis; NCTC775, NCTC 775): 8 µg/mL (≈ 17 µM)
MIC (E. faecalis; NCTC12201, NCTC 12201): 8 µg/mL (≈ 17 µM)
MIC (E. faecalis; NCTC12204, NCTC 12204): 8 µg/mL (≈ 17 µM)

C[C@H]1COc2c(N3CCN(c4ncccn4)CC3)c(F)cc3c(=O)c(C(=O)O)cn1c23 [Compound 42, (S)-9-Fluoro-3-methyl-7-oxo-10-(4-(pyrimidin-2-yl)piperazin-1-yl)-2,3-dihydro-7H-[1,4]oxazino[2,3,4-ij]quinoline-6-carboxylic acid]
fold difference in MIC, SA-1199B vs SA-1199 (S. aureus): 4 fold
MIC (S. aureus; [2]): 0.06 µg/mL (≈ 0.141 µM)
MIC (S. aureus; [3]): > 32 µg/mL
MIC (S. aureus; [4]): 8 µg/mL (≈ 18.8 µM)
MIC (S. aureus; SA-1199, read-out: MIC): 0.06 µg/mL (≈ 0.141 µM)
MIC (S. aureus; SA-1199B (NorA-overexpressing)): 0.25 µg/mL (≈ 0.588 µM)
AUC of growth curve ([1]; 0.25 MIC + R (reserpine)): 1.819 and 2.376 and 1.866
AUC of growth curve ([1]; 0.25 MIC): 2.249 and 2.537 and 2.169
AUC of growth curve ([1]; 0.5 MIC + R (reserpine)): 1.376 and 1.633 and 1.162
AUC of growth curve ([1]; 0.5 MIC): 1.682 and 1.538 and 1.705

O=C(O)c1cn(C2CC2)c2c(Cc3cccc4ccccc34)c(N3CCNCC3)c(F)cc2c1=O [Compound 19, 1-Cyclopropyl-6-fluoro-8-(naphthalen-1-ylmethyl)-4-oxo-7-(piperazin-1-yl)-1,4-dihydroquinoline-3-carboxylic acid]
MIC (S. aureus; [2]): 64 µg/mL (≈ 136 µM)
MIC (S. aureus; [3]): 32 µg/mL (≈ 67.9 µM)
MIC (S. aureus; [4]): 32 µg/mL (≈ 67.9 µM)
MIC (S. aureus; SA-1199, read-out: MIC): 16 µg/mL (≈ 33.9 µM)
MIC (S. aureus; SA-1199B (NorA-overexpressing)): 16 µg/mL (≈ 33.9 µM)
MIC (S. aureus; USA300, USA300, read-out: MIC): 32 µg/mL (≈ 67.9 µM)
MIC (E. faecalis; NCTC775, NCTC 775): 16 µg/mL (≈ 33.9 µM)
MIC (E. faecalis; NCTC12201, NCTC 12201): 16 µg/mL (≈ 33.9 µM)
MIC (E. faecalis; NCTC12204, NCTC 12204): 16 µg/mL (≈ 33.9 µM)

NC[C@H]1O[C@H](O[C@H]2[C@H](O)[C@@H](O[C@H]3O[C@H](CO)[C@@H](O)[C@H](N)[C@H]3O)[C@H](N)C[C@@H]2N)[C@H](N)C[C@@H]1O [Tobramycin]
MIC +50 (0.25x MIC) (A. baumannii; A. baumannii ATCC 17978): 1.88 to 3.76 µg/mL
MIC +50 (0.5x MIC) (A. baumannii; A. baumannii ATCC 17978): 0.014 to 0.55 µg/mL
MIC +50 (0.25x MIC) (A. baumannii; A. baumannii AYE): 56 to 248 µg/mL
MIC +50 (0.5x MIC) (A. baumannii; A. baumannii AYE): 0.375 to 136 µg/mL
MIC (A. baumannii; [5]): 4 µg/mL
MIC (A. baumannii; [6]): 256 µg/mL

CNC(C)C1CCC(N)C(OC2C(N)CC(N)C(OC3OCC(C)(O)C(NC)C3O)C2O)O1 (stereo not drawn) [Gentamicin]
MIC +50 (0.25x MIC) (A. baumannii; A. baumannii ATCC 17978): 2.13 to 4.25 µg/mL
MIC +50 (0.5x MIC) (A. baumannii; A. baumannii ATCC 17978): 0.03 to 1.75 µg/mL
MIC +50 (0.25x MIC) (A. baumannii; A. baumannii AYE): >1,024 μg/mL
MIC (A. baumannii; [5]): 4 µg/mL
MIC (A. baumannii; [6]): > 1020 µg/mL

CCn1cc(C(=O)O)c(=O)c2cc(F)c(N3CCN(Cc4cccc5ccccc45)CC3)cc21 [Compound 20, 1-Ethyl-6-fluoro-7-(4-(naphthalen-1-ylmethyl)piperazin-1-yl)-4-oxo-1,4-dihydroquinoline-3-carboxylic acid]
MIC (S. aureus; [2]): 1 µg/mL (≈ 2.18 µM)
MIC (S. aureus; [3]): 2 µg/mL (≈ 4.35 µM)
MIC (S. aureus; [4]): 2 µg/mL (≈ 4.35 µM)

O=C(N[C@H](CO)[C@H](O)c1ccc([N+](=O)[O-])cc1)C(Cl)Cl [Chloramphenicol]
MIC +50 (0.25x MIC) (A. baumannii; A. baumannii ATCC 17978): 60 µg/mL
MIC +50 (0.5x MIC) (A. baumannii; A. baumannii ATCC 17978): 56 µg/mL
MIC +50 (0.25x MIC) (A. baumannii; A. baumannii AYE): 120 µg/mL
MIC +50 (0.5x MIC) (A. baumannii; A. baumannii AYE): 224 µg/mL
MIC (A. baumannii; ATCC17978, read-out: MIC alone): 64 µg/mL
MIC (A. baumannii; read-out: MIC alone): 128 µg/mL

O=C(O)c1cn(C2CC2)c2cc(N3CCN(Cc4cccc5ccsc45)CC3)c(F)cc2c1=O [Compound 37, 7-(4-(Benzo[b]thiophen-7-ylmethyl)piperazin-1-yl)-1-cyclopropyl-6-fluoro-4-oxo-1,4-dihydroquinoline-3-carboxylic acid]
MIC (S. aureus; [2]): < 0.125 µg/mL
MIC (S. aureus; [3]): 2 µg/mL (≈ 4.19 µM)
MIC (S. aureus; [4]): 2 µg/mL (≈ 4.19 µM)

CCn1cc(C(=O)O)c(=O)c2cc(F)c(N3CCN(Cc4ccc(N(C)C)cc4)CC3)cc21 [Compound 32, 7-(4-(4-(Dimethylamino)benzyl)piperazin-1-yl)-1-ethyl-6-fluoro-4-oxo-1,4-dihydroquinoline-3-carboxylic acid]
MIC (S. aureus; [2]): 0.125 to 0.25 µg/mL (≈ 0.276 to 0.552 µM)
MIC (S. aureus; [3]): > 32 µg/mL
MIC (S. aureus; [4]): 16 to 32 µg/mL (≈ 35.4 to 70.7 µM)

O=C(O)c1cn(C2CC2)c2cc(N3CCN(Cc4ccc(-c5ccccc5)cc4)CC3)c(F)cc2c1=O [Compound 39, 7-(4-([1,1’-Biphenyl]-4-ylmethyl)piperazin-1-yl)-1-cyclopropyl-6-fluoro-4-oxo-1,4-dihydroquinoline-3-carboxylic acid]
MIC (S. aureus; [2]): 1 µg/mL (≈ 2.01 µM)
MIC (S. aureus; [3]): 2 µg/mL (≈ 4.02 µM)
MIC (S. aureus; [4]): 2 µg/mL (≈ 4.02 µM)

CCn1cc(C(=O)O)c(=O)c2cc(F)c(N3CCN(Cc4ccc(F)c5ccccc45)CC3)cc21 [Compound 36, 1-Ethyl-6-fluoro-7-(4-((4-fluoronaphthalen-1-yl)methyl)piperazin-1-yl)-4-oxo-1,4-dihydroquinoline-3-carboxylic acid]
MIC (S. aureus; [2]): 8 µg/mL (≈ 16.8 µM)
MIC (S. aureus; [3]): 8 µg/mL (≈ 16.8 µM)
MIC (S. aureus; [4]): 8 µg/mL (≈ 16.8 µM)

C[C@H]1COc2c(N3CC[C@H](Nc4ncccn4)C3)c(F)cc3c(=O)c(C(=O)O)cn1c23 [Compound 44, (S)-9-Fluoro-3-methyl-7-oxo-10-((S)-3-(pyrimidin-2-ylamino)pyrrolidin-1-yl)-2,3-dihydro-7H-[1,4]oxazino[2,3,4-ij]quinoline-6-carboxylic acid]
MIC (S. aureus; [2]): 0.25 µg/mL (≈ 0.588 µM)
MIC (S. aureus; [3]): 8 µg/mL (≈ 18.8 µM)
MIC (S. aureus; [4]): 8 µg/mL (≈ 18.8 µM)
MIC (S. aureus; SA-1199, read-out: MIC): 0.25 µg/mL (≈ 0.588 µM)
MIC (S. aureus; SA-1199B (NorA-overexpressing)): 0.25 µg/mL (≈ 0.588 µM)
fold potentiation compared to levofloxacin (S. aureus): 2–4 fold
